The subject of series [1] is BXPC-3. Nature of the series: Antiproliferative activity against human BXPC-3 cells assessed as inhibition of cell proliferation treated for 72 hrs by resazurin dye-based fluorescence assay. In kind it is functional. The following applies: BXPC-3, 72 h.
Series [2] concerns MIA PaCa-2. Nature of the series: Antiproliferative activity against human MIA PaCa-2 cells assessed as inhibition of cell proliferation treated for 72 hrs by resazurin dye-based fluorescence assay. In kind it is functional. The following applies: MIA PaCa-2, 72 h.
Series [3] concerns MV4-11. As to the kind of experiment: Antiproliferative activity against human MV4-11 cells assessed as inhibition of cell proliferation treated for 72 hrs by resazurin dye-based fluorescence assay. The class given is functional. To be noted: MV4-11, 72 h.
In series [4] the test system is JeKo-1. Nature of the series: Antiproliferative activity against human JeKo-1 cells assessed as inhibition of cell proliferation treated for 72 hrs by resazurin dye-based fluorescence assay. In kind it is functional. To be noted: JeKo-1, 72 h.
In series [5] the test system is MM1.S. As to the kind of experiment: Antiproliferative activity against human MM1.S cells assessed as inhibition of cell proliferation treated for 72 hrs by resazurin dye-based fluorescence assay. The class given is functional.
Series [6] has as its system Huh-7. As to the kind of experiment: Antiproliferative activity against human Huh-7 cells assessed as inhibition of cell proliferation treated for 72 hrs by resazurin dye-based fluorescence assay. The class given is functional. The following applies: Huh-7, 72 h.
Series [7] deals with CWR22R. As to the kind of experiment: Antiproliferative activity against human 22Rv1 cells assessed as inhibition of cell proliferation treated for 72 hrs by resazurin dye-based fluorescence assay. To be noted: 22Rv1, 72 h. In kind it is functional.
Series [8] can be described thus: Clearance in Beagle dog at 1 mg/kg, iv measured for 0.083 to 24 hrs by LC-MS/MS analysis. The class given is ADME, organism-based, Canis lupus familiaris. To be noted: in vivo, time 0.083-24 hrs.
Series [9] can be described thus: AUC (0 to infinity) in Beagle dog at 1 mg/kg, iv measured for 0.083 to 24 hrs by LC-MS/MS analysis. To be noted: in vivo. The class given is ADME, organism-based, Canis lupus familiaris. More on the design: time upper 24 hrs, time lower 0.083 hrs, dose 1 mg/kg, route iv.
A short description of series [10]: Cmax in Beagle dog at 1 mg/kg, iv measured for 0.083 to 24 hrs by LC-MS/MS analysis. In kind it is ADME, organism-based, Canis lupus familiaris. More on the design: time upper 24 hrs, time lower 0.083 hrs, dose 1 mg/kg, route iv. The following applies: in vivo.
Series [11] can be described thus: Half life in Beagle dog at 1 mg/kg, iv measured for 0.083 to 24 hrs by LC-MS/MS analysis. The following applies: in vivo, time 0.083-24 hrs. In kind it is ADME, organism-based, Canis lupus familiaris.
The test system of series [12] is BXPC-3. Nature of the series: Induction of apoptosis in human BXPC-3 cells assessed as necrotic cells at 100 nM incubated for 24 hrs by […] (reference value: 3.57 %). The class given is functional.
Series [13] in a line: Toxicity in castrated male nude Balb/c mouse xenografted with human 22Rv1 cells assessed as toxic signs at 50 mg/kg, ip administered twice a week measured after 28 days. The class given is organism-based, CWR22R. The following applies: in vivo, 672 h, time 28 day.
In series [14] the test system is CWR22R. As to the kind of experiment: In vivo antitumor activity against human 22Rv1 cells xenografted in castrated male nude Balb/c mouse assessed as tumor growth inhibition at 50 mg/kg, ip administered twice a week measured after 28 days relative to control. The class given is functional. To be noted: 22Rv1, 672 h, time 28 day, read-out: TGI.
Series [15] relates to BXPC-3. As to the kind of experiment: Induction of apoptosis in human BXPC-3 cells assessed as viable cells at 100 nM incubated for 24 hrs by […] (reference value: 93.51 %). The class given is functional. To be noted: read-out: Activity.
Series [16] relates to CWR22R. As to the kind of experiment: In vivo antitumor activity against human 22Rv1 cells xenografted in castrated male nude Balb/c mouse assessed as relative increment ratio at 50 mg/kg, ip administered twice a week measured after 28 days relative to control. The class given is functional. The following applies: time 28 day.
A short description of series [17]: Toxicity in castrated male nude Balb/c mouse xenografted with human 22Rv1 cells assessed as tolerance at 50 mg/kg, ip administered twice a week measured after 28 days. To be noted: in vivo, 672 h, time 28 day. The class given is organism-based, CWR22R.
The nature of series [18]: Toxicity in castrated male nude Balb/c mouse xenografted with human 22Rv1 cells assessed as animal weight loss at 50 mg/kg, ip administered twice a week measured after 28 days. In kind it is organism-based, CWR22R. To be noted: in vivo, 672 h, time 28 day.
Series [19] has as its system BXPC-3. Nature of the series: Induction of apoptosis in human BXPC-3 cells assessed as late cells at 100 nM incubated for 24 hrs by […] (reference value: 1.24 %). In kind it is functional.
For series [20], the system named is BXPC-3. As to the kind of experiment: Induction of apoptosis in human BXPC-3 cells assessed as early cells at 100 nM incubated for 24 hrs by […] (reference value: 1.68 %). The class given is functional.

Molecules are shown by their SMILES.

Consider `Nc1ccn([C@@H]2O[C@@H]3COP(=O)(OCCC(=O)OCc4ccccc4)O[C@H]3C2(F)F)c(=O)n1` (stereo not given in full), for which the IC50 in series [1] stood at 68.4 nM; in series [2], 29 nM.
As for `CCC(=O)Nc1ccn([C@@H]2O[C@@H]3COP(=O)(OCC(=O)OCc4ccccc4)O[C@H]3C2(F)F)c(=O)n1` (stereo not given in full), the IC50 in series [1] is 908 nM; in series [2] it was 530 nM.
For `COC(=O)COP1(=O)OC[C@H]2O[C@@H](n3ccc(N)nc3=O)C(F)(F)[C@@H]2O1` (stereo not given in full), the IC50 in series [3] is 5.8 nM; in series [1], 31.1 nM; in [4], 23.2 nM; in series [5], 2.7 nM; in series [6] it was 23 nM; in [7], 21.5 nM. Also, the IC50 in series [2] is 13.6 nM.
In the case of `COC(=O)[C@H](C)NP(=O)(OC[C@H]1O[C@@H](n2ccc(N)nc2=O)C(F)(F)[C@@H]1O)Oc1ccccc1` (stereo not given in full), the concentration for half-maximal inhibition (IC50) in series [1] is above 1000 nM; in [5], 110 nM; in series [2], 553 nM.
Turning to `CCOC(=O)COP1(=O)OC[C@H]2O[C@@H](n3ccc(N)nc3=O)C(F)(F)[C@@H]2O1` (stereo not given in full), the 50% inhibitory concentration (IC50) in [3] was found to be 6.1 nM; in series [1], 22.6 nM; in series [4], 31.6 nM; in [5], 3.9 nM; in series [6] it was 38.4 nM; in series [7], 20.5 nM. Also, the IC50 in series [2] amounted to 16.3 nM.
For `Nc1ccn([C@@H]2O[C@@H]3CO[P@](=O)(OCC(=O)OCc4ccccc4)O[C@H]3C2(F)F)c(=O)n1`, the half-inhibitory concentration (IC50) in series [3] was 3.8 nM; in series [1], 14.5 nM; in series [5], 5 nM; in [6], 22 nM; in series [7], 10.6 nM.
Regarding `Nc1ccn([C@@H]2O[C@@H]3COP(=O)(OCCCCC(=O)OCc4ccccc4)O[C@H]3C2(F)F)c(=O)n1` (stereo not given in full), the results for the IC50 in series [1] and in series [2] were 213 nM and 50.9 nM, respectively.
`CCCC(CCC)C(=O)Nc1ccn([C@@H]2O[C@H](COP(=O)(N[C@@H](C)C(=O)OCc3ccccc3)Oc3ccccc3)[C@@H](O)C2(F)F)c(=O)n1` (stereo not given in full): the IC50 in series [1], in series [5] and in series [2] was above 1000 nM each time.
Consider `CC(C)OC(=O)COP1(=O)OC[C@H]2O[C@@H](n3ccc(N)nc3=O)C(F)(F)[C@@H]2O1` (stereo not given in full), for which the IC50 in series [3] stood at 4.9 nM; in [1] it was 47.5 nM; in series [4], 23.4 nM; in series [5] it was 5.4 nM; in series [6], 26.1 nM; in series [7], 15 nM. The IC50 in [2] was found to be 24.2 nM.
In the case of `COC(=O)COP(=O)(N[C@@H](C)C(=O)OC(C)C)OC[C@H]1O[C@@H](n2ccc(N)nc2=O)C(F)(F)[C@@H]1O` (stereo not given in full), the IC50 in series [3] came to 3.5 nM; in series [1], 40.5 nM; in [4], 26.2 nM; in series [5] it was 4.7 nM; in [6], 41.1 nM; in series [2] it was 29.4 nM.
Take `Nc1ccn([C@@H]2O[C@H](CO)[C@@H](OP(=O)(O)OCC(=O)OCc3ccccc3)C2(F)F)c(=O)n1`: the IC50 stood at 10.3 nM in series [3]; 64.5 nM in series [1]; 17.3 nM in series [5]; 69 nM in series [6]; 43.2 nM in series [7]. For the same compound, the clearance in series [8] is 28.4 mL/min/kg. The compound also showed an AUC(0-inf) in series [9] of 637 ng·h/mL. Moreover, the peak level in series [10] (Cmax) was 2560 ng/mL. This compound also had a half-life in series [11] of 35.2 min.
As for `Nc1ccn([C@@H]2O[C@@H]3CO[P@@](=O)(OCC(=O)OCc4ccccc4)O[C@H]3C2(F)F)c(=O)n1`, the IC50 in [3] is 4.1 nM; in [1], 15 nM; in series [5], 6 nM; in series [6], 22 nM; in series [7] it was 8.1 nM.
On to `CCCC(CCC)C(=O)Nc1ccn([C@@H]2O[C@H](COP(=O)(N[C@@H](C)C(=O)OC(C)C)OCC(=O)OC)[C@@H](O)C2(F)F)c(=O)n1` (stereo not given in full), for which the IC50 in series [1], in series [5] and in series [2] was above 1000 nM each time.
Take `CC(C)OC(=O)[C@H](C)NP(=O)(OC[C@H]1O[C@@H](n2ccc(N)nc2=O)C(F)(F)[C@@H]1O)Oc1ccccc1` (stereo not given in full): the IC50 in series [1] was above 1000 nM; in [5] it was 500 nM; in series [2], 710 nM.
As for `COC(=O)COP(=O)(N[C@@H](C)C(=O)OCc1ccccc1)OC[C@H]1O[C@@H](n2ccc(N)nc2=O)C(F)(F)[C@@H]1O` (stereo not given in full), the IC50 was 5.8 nM in series [3]; 35.2 nM in series [1]; 22.6 nM in [4]; 4.1 nM in series [5]; 28.2 nM in series [6]; 27 nM in series [2].
For `C[C@H](NP(=O)(OC[C@H]1O[C@@H](n2ccc(N)nc2=O)C(F)(F)[C@@H]1O)Oc1ccccc1)C(=O)OC1CCCCC1` (stereo not given in full), the half-maximal inhibitory concentration (IC50) was above 1000 nM in [1], 130 nM in series [5] and 540 nM in series [2].
For `Nc1ccn([C@@H]2O[C@@H]3COP(=O)(OCCCC(=O)OCc4ccccc4)O[C@H]3C2(F)F)c(=O)n1` (stereo not given in full), the IC50 was found to be 78.3 nM in series [1] and 35.7 nM in [2].
Turning to `C[C@H](NP(=O)(OC[C@H]1O[C@@H](n2ccc(N)nc2=O)C(F)(F)[C@@H]1O)Oc1ccccc1)C(=O)OCc1ccccc1` (stereo not given in full) [FOSGEMCITABINE PALABENAMIDE], the Activity in series [12] is 7.48%; in series [13], “Non-Toxic”; in [17], “Non-Toxic”; in [18] it was “Non-Toxic”; in series [19] it was 2.3%; in series [20], 1.52%. Further, the IC50 in series [3] turned out to be 61 nM; in series [1] it was 230 nM; in series [4] it was 160 nM; in [5] it was 31.1 nM; in series [6], 350 nM; in series [7], 130 nM. In addition, the half-inhibitory concentration (IC50) in series [2] amounted to 142 nM. Also, in series [14], the inhibition in vivo at 50 mg/kg was 55.6%. The viability at 0.1 µM in series [15] came out at 88.7%. Also, the T/C in series [16] stood at 51.9%.
For the compound `Nc1ccn([C@@H]2O[C@H](COP(=O)(O)OCC(=O)OCc3ccccc3)[C@@H](O)C2(F)F)c(=O)n1`, the IC50 in series [3] turned out to be 10.3 nM; in series [1], 64.5 nM; in [5], 17.3 nM; in series [6], 69 nM; in [7] it was 43.2 nM. The compound also gave a clearance in series [8] of 28.4 mL/min/kg. This compound yielded an AUC(0-inf) in series [9] of 637 ng·h/mL. The Cmax in series [10] turned out to be 2560 ng/mL. The compound further had a half-life in series [11] of 35.2 min.
